# Patent US9480703B2, “Method and composition of glycosaminoglycans in sickle cell and vascular disorders” (priority 2013, dated 2016)
# Legend:
# [1] = Mortality of treated SCD mice; format: in vivo; conditions: LMWH 5 mg/kg daily, % of the group's mice
# Protocol: (§1) Each category of mice (wild or SCD) was divided into three groups. Basal blood samples were taken by retro orbital venipuncture under anesthesia with citrated micro-hematocrit tubes, before the treatment administration. The three groups in each category were treated subcutaneously with LMWH (5 mg/kg), SNACH (20 mg/kg), and PSI (10 mg/kg). Compounds were administered daily for 7 days, and follow up blood samples were drawn daily after 1 hour of treatment administration. Immediately after collection, blood was centrifuged at 800×g for 5 minutes and plasma was collected and stored at −80° C.
# NFkB = assay: NF-KB luciferase reporter assay; format: cell-based; conditions: NF-KB Luciferase Reporter Hela Stable cells, 1 μL, 10 μL and 100 μL, two hours
# Protocol: The Luciferase Assay System was purchased from Promega (Madison, Wis., USA). NF-KB Luciferase Reporter Hela Stable cells were seeded at 10^4 cells/well in 96-well plate and incubated for 24 hours. Then, growth media was removed. Next, SNACH, tinzaparin or Poly-Arginine NPs were added at concentrations of 1 μL, 10 μL and 100 μL in triplicate and incubated at 36° C. for two hours. After two hours, cells were washed with PBS. Lysis buffer was prepared following a generic protocol. 0.5 mL of lysis buffer was mixed with 2 mL of PBS. Next, the lysis buffer's solution was added to each well. Afterward, the 96-well plate was rocked several times using a shaker. Cells and liquid were collected for centrifugation at 1200×g for 5 minutes at 4° C. The supernatant was removed and stored at −80° C. One week later, the 96-well plate was placed in the luminometer containing 20 μL of lysis buffer and 100 μL of luciferase assay reagent/well. The light was measured for a period of 10 seconds with a delay time of 2 seconds.
# [2] = system: adhesion of sickle RBCs to endothelial cells (HUVECs); assay: Static adhesion assay of PKH67-labeled sickle RBCs on TNF-α-treated HUVECs; format: cell-based, human; conditions: HUVECs treated with TNF-α 10 ng/ml; PSI 10 μg/ml, LMWH & SNACH 40 μg/ml
# Protocol: Using gelatin-coated culture flasks, HUVEC were cultured in EGM complete media supplemented with 2 ml bovine brain extract (BBE), and passaged when 80% confluent using trypsin/EDTA solution according to the manufacturers' instructions. Cells from passages 2 to 6 were used for adhesion assay experiments. Cells were sub-cultured in a 96-well plate pre-coated with collagen with a number of 20,000 cells per well, and were left for 24 hours at 37° C. in a CO2 (5%) incubator to form a confluent monolayer.
# Normal and sickle blood samples were collected in EDTA tubes from the antecubital vein of healthy volunteers and homozygous sickle cell patients, respectively. […] Packed RBCs were washed once with PBS, and counted using a CBC analyzer. […]
# After HUVECs formed a confluent monolayer in the plate's wells, the experiment was designed to include five groups in […]: medium only (negative control), TNF-α only (positive control), or TNF-α with the treatment compounds: LMWH, SNACH, and PSI. […] Non-adherent RBCs were removed with PBS wash, and then 150 μl of complete medium were added for plate reading.
# In order to quantitate endothelial-adherent RBCs by the fluorescence plate reader, serial two-fold dilutions of PKH67-labeled RBC samples were prepared from 2×10^6 to 0.16×10^6 RBCs/well. […] fluorescence was detectable with as few as 10^4 RBCs. […]
# factor Xa = assay: Anti-Xa in dosed mice; format: in vivo; conditions: subcutaneous, SNACH 0.1-40 mg/Kg, tinzaparin 0.1-5.0 mg/Kg
# ICAM-1 = ICAM-1 levels in plasma of transgenic sickle cell mice; format: in vivo; conditions: daily subcutaneous treatment for 7 days, LMWH 5 mg/kg, SNACH (NACH) 20 mg/kg, PSI-14 10 mg/kg
# Excerpt: (§2) Transgenic SCD model mice (stock #013071) of aged-matched female were obtained from The Jackson Laboratory (Bar Harbor, Me.) in addition to wild mice as controls. Genetically, transgenic mice were designed with the human hemoglobin gamma (^Ay) gene and the human sickle hemoglobin beta (β^S) gene replacing the endogenous mouse major and minor β-globin.
# as §1
# Levels of adhesion biomarker ICAM-1 were measured in mice plasma using the Bio-Plex 200 systems. Assay kit (171-304080M) was obtained from Bio-Rad (Hercules, Calif.) and the experiment was conducted following the provided instructions. The assay principle is based on the concept of sandwich ELISA where magnetic beads are covalently bound to the capture antibodies that react to the targeted biomarker. […]
# [3] = system: endogenous pathway of coagulation; assay: aPTT in citrated plasma; conditions: SNACH 1-10 uM
# Protocol: To 0.1 ml of citrated plasma 0.1 ml of human placenta lipid is added and the mixture is incubated for 2 min at 37° C. The coagulation process is initiated by the addition of 0.1 ml 25 mM calcium chloride and the time to clot formation is determined. The aPTT measures effects on the endogenous pathway of coagulation.
# aPTT in dosed mice = format: in vivo; conditions: subcutaneous, SNACH 0.1-40 mg/Kg, tinzaparin 0.1-5.0 mg/Kg
# [4] = system: platelet/fibrin clot dynamics; assay: Thrombelastography (TEG), cup with or without HUVEC coating; conditions: re-calcified citrated whole blood
# Protocol: Thrombelastography (TEG) was performed in either citrated whole blood after re-calcification. The blood samples were mixed with 3.8% tri-sodium citrate solution (one part citrate solution to 9 parts blood) as anticoagulant. The citrated whole blood was re-calcified by adding 0.4 ml isotonic calcium chloride solution. An aliquot of 0.36 ml of the re-calcified whole blood was transferred to the pre-warmed cup (Coated with monolayer of HUVEC or not) of the thrombelastograph. The following measurements were the standard variables of TEG: (i) Reaction time (R): the time from sample placement in the cup until onset of clotting (defined as amplitude of 1 mm). This represents the rate of initial fibrin formation; (ii) Maximum amplitude (MA): greatest amplitude on the TEG trace, wherein MA represents the absolute strength of the fibrin clot and is a direct function of the maximum dynamic strength of fibrin and platelets.
# P-selectin = P-selectin levels in plasma of transgenic sickle cell mice; format: in vivo; conditions: daily subcutaneous treatment for 7 days, LMWH 5 mg/kg, SNACH (NACH) 20 mg/kg
# Excerpt: as §2, §1
# Bleeding time in mice = format: in vivo
substance,measurement,setting,value
tinzaparin [LMWH],mortality rate (bleeding complications),[1],75%
same,NFkB activation,NFkB,significant concentration-dependent suppression of NFkB activation
same,adhesion of sickle RBCs to the endothelial layer compared to TNF-α only (positive control),[2],did not show a decrease in the adhesion that could be considered statistically significant
same,anti-Xa,factor Xa,inhibition of factor Xa
same,ICAM-1 levels in plasma at multiple time points,ICAM-1,showed a decrease only on the first and third days of treatment
same,effect on aPTT,[3],concentration dependent increase in aPTT
same,aPTT,aPTT in dosed mice,increase in aPTT
same,platelet/fibrin clot dynamics (TEG),[4]; absence of endothelial cell coating of cup,suppression of platelet/fibrin clot dynamics
same,platelet/fibrin clot dynamics (TEG),[4]; presence of endothelial cell (HUVEC) coating of cup,suppression of platelet/fibrin clot dynamics
same,decrease of P-selectin levels in plasma,P-selectin,~15%
same,bleeding time,"Bleeding time in mice; subcutaneous, SNACH 0.1-40 mg/Kg, tinzaparin 0.1-5.0 mg/Kg",maximal increase in bleeding time
same,finding at site of injection,Bleeding time in mice; tinzaparin 0.1-5.0 mg/Kg subcutaneously,browsing at site of injection
